We go through six molecules from DBAASP.

SMILES strings stand for the structures. In brackets after ≈: the same amount, converted by molar mass.

Holding throughout (experiment): ≥ marks a high value that may be exact or a test limit, other limits are often not marked, values filed in µg/mL are converted to µM
The test system of experiment [1] is Staphylococcus aureus JE2.
Experiment [2] has as its system Escherichia coli K-12.
Experiment [3] deals with Enterococcus hirae ATCC 10541.
Experiment [4] concerns Salmonella enterica subsp. enterica serovar Choleraesuis ATCC 10708.
Experiment [5] concerns Staphylococcus aureus CCT 6538.
The subject of experiment [6] is Streptococcus mutans AU159.
Experiment [7] relates to Staphylococcus aureus CCT 2580.
Experiment [8] concerns Staphylococcus aureus ATCC 25923.
The subject of experiment [9] is Escherichia coli CCT 1457.
The subject of experiment [10] is Escherichia coli ATCC 25922.
Experiment [11] deals with Micrococcus luteus ATCC 4698.
The test system of experiment [12] is Bacillus thuringiensis ATCC 10792.
Experiment [13] deals with Salmonella enterica subsp. enterica serovar Typhimurium ATCC 14028.
The test system of experiment [14] is Pseudomonas aeruginosa ATCC 15422.
The subject of experiment [15] is Streptococcus pneumoniae ATCC 11733.
In experiment [16] the test system is Enterococcus faecium CCT 5079.
The test system of experiment [17] is Bacillus cereus ATCC 11778.
Experiment [18] deals with Pseudomonas aeruginosa ATCC 13388.
For experiment [19], the system named is Candida albicans ATCC 90028.
The subject of experiment [20] is Staphylococcus epidermidis ATCC 12228.
The subject of experiment [21] is Escherichia coli ATCC 11775.
Experiment [22] concerns Legionella pneumophila Lens.
For experiment [23], the system named is Escherichia coli JW2778 ΔygdD.
Experiment [24] relates to Salmonella typhimurium SL1344.
In experiment [25] the test system is Escherichia coli JJ2489.
For experiment [26], the system named is Salmonella enterica subsp. enterica serovar Enteritidis MH91989.
Experiment [27] concerns Escherichia coli BW25113.
In experiment [28] the test system is Escherichia coli JW0368 ΔsbmA.
Experiment [29] has as its system Escherichia coli MC1041.
Experiment [30] concerns Escherichia coli J2210.
For experiment [31], the system named is Escherichia coli JW0013.

For the molecule `CC[C@H](C)[C@H](NC(=O)[C@@H](NC(=O)[C@H](CO)NC(=O)[C@H](C)NC(=O)[C@@H](NC(=O)[C@H](CCCCN)NC(=O)[C@H](CCCCN)NC(=O)[C@@H](NC(=O)[C@@H](NC(=O)[C@H](CC(=O)O)NC(=O)[C@H](Cc1ccccc1)NC(=O)[C@H](CC(C)C)NC(=O)CNC(C)=O)C(C)C)[C@@H](C)CC)C(C)C)C(C)C)C(=O)NCC(=O)NCC(=O)N[C@@H](CC(C)C)C(=O)O` [GLFDVIKKVASVIGGL], the minimum inhibitory concentration (MIC) in experiment [1] and in experiment [2] was at least 158 µM each time.

With `CC[C@H](C)[C@H](N)C(=O)N[C@@H](CC(N)=O)C(=O)N[C@@H](Cc1c[nH]c2ccccc12)C(=O)N[C@@H](CCCCN)C(=O)N[C@@H](CCCCN)C(=O)N[C@H](C(=O)N[C@@H](C)C(=O)N[C@@H](CCCCN)C(=O)N[C@@H](CCCCN)C(=O)N[C@H](C(=O)N[C@@H](C)C(=O)NCC(=O)N[C@@H](CCSC)C(=O)N[C@@H](CC(C)C)C(N)=O)C(C)C)[C@@H](C)CC` [INWKKIAKKVAGML], the MIC (commonly the lowest concentration that inhibits growth of the organism) in experiment [3] is 5 µM (≈ 8 µg/mL); in [4], 5 µM (≈ 8 µg/mL); in [5], 0.625 µM (≈ 0.999 µg/mL); in [6] it was 1.25 µM (≈ 2 µg/mL); in experiment [7], 1.25 µM (≈ 2 µg/mL); in [8] it was 1.25 µM (≈ 2 µg/mL). The minimum inhibitory concentration (MIC) was determined as 0.625 µM (≈ 0.999 µg/mL) in experiment [9]; 2.5 µM (≈ 4 µg/mL) in [10]; 0.625 µM (≈ 0.999 µg/mL) in experiment [11]; 19.4 µM (≈ 31 µg/mL) in experiment [12]; 1.25 µM (≈ 2 µg/mL) in [13]; 5 µM (≈ 8 µg/mL) in experiment [14]. The MIC is 0.625 µM (≈ 0.999 µg/mL) in [15]; 0.625 µM (≈ 0.999 µg/mL) in experiment [16]; 10 µM (≈ 16 µg/mL) in [17]; 10 µM (≈ 16 µg/mL) in experiment [18]; 9.76 µM (≈ 15.6 µg/mL) in experiment [19]; 0.625 µM (≈ 0.999 µg/mL) in experiment [20]. Moreover, the MIC in experiment [21] was 2.5 µM (≈ 4 µg/mL).

In the case of `CC[C@H](C)[C@H](NC(=O)[C@H](CC(C)C)NC(=O)[C@H](CC(=O)O)NC(=O)[C@@H](NC(=O)[C@@H](NC(=O)[C@H](Cc1ccccc1)NC(=O)[C@H](CCC(N)=O)NC(=O)[C@@H](N)CCSC)[C@@H](C)CC)[C@@H](C)O)C(=O)N[C@@H](CCCCN)C(=O)N[C@@H](CCCCN)C(=O)N[C@@H](C)C(=O)N[C@H](C(=O)N[C@@H](CC(=O)O)C(=O)N[C@@H](Cc1ccccc1)C(=O)N[C@@H](Cc1ccccc1)C(=O)N[C@@H](CCCCN)C(=O)NCC(=O)N[C@@H](CC(C)C)C(=O)N[C@H](C(=O)NCC(=O)N[C@@H](CC(N)=O)C(=O)N[C@@H](CCCCN)C(=O)O)C(C)C)C(C)C` [MQFITDLIKKAVDFFKGLVGNK], the minimum inhibitory concentration (MIC) in experiment [22] stood at 2.08 µM (≈ 5.23 µg/mL).

With `CC[C@H](C)[C@H](N)C(=O)N[C@@H](CC(N)=O)C(=O)N[C@@H](Cc1c[nH]c2ccccc12)C(=O)N[C@@H](CC(C)C)C(=O)N[C@@H](C)C(=O)N[C@H](C(=O)N[C@@H](C)C(=O)N[C@@H](C)C(=O)N[C@@H](C)C(=O)N[C@H](C(=O)N[C@@H](C)C(=O)NCC(=O)N[C@@H](CCSC)C(=O)N[C@@H](CC(C)C)C(N)=O)C(C)C)[C@@H](C)CC` [INWLAIAAAVAGML], the MIC in experiment [3] is at least 354 µM; in [4], at least 354 µM; in experiment [5], at least 354 µM; in [6], at least 354 µM; in [7], at least 354 µM; in experiment [8], over 354 µM. Moreover, the minimal inhibitory concentration (MIC) in [9] was at least 354 µM; in experiment [10], over 354 µM; in experiment [11], at least 354 µM; in experiment [12], at least 354 µM; in experiment [13], over 354 µM; in experiment [14], at least 354 µM. The MIC in experiment [15] was at least 354 µM; in experiment [16], at least 354 µM; in [17], at least 354 µM; in experiment [18] it was at least 354 µM; in experiment [20], over 354 µM; in experiment [21] it was at least 354 µM.

Consider `CC[C@H](C)[C@H](NC(=O)[C@H](Cc1ccccc1)NC(=O)CNC(=O)[C@H](CC(N)=O)NC(=O)[C@@H](N)CCSC)C(=O)N[C@@H](CC(C)C)C(=O)NCC(=O)N[C@@H](CCCCN)C(=O)N[C@@H](Cc1ccccc1)C(=O)N[C@@H](Cc1ccccc1)C(=O)N[C@@H](CC(=O)O)C(=O)N[C@H](C(=O)N[C@@H](C)C(=O)N[C@@H](CCCCN)C(=O)N[C@@H](CCCCN)C(=O)N[C@H](C(=O)N[C@@H](CC(C)C)C(=O)N[C@@H](CC(=O)O)C(=O)N[C@H](C(=O)N[C@H](C(=O)N[C@@H](Cc1ccccc1)C(=O)N[C@@H](CCC(N)=O)C(=O)N[C@@H](CCCCN)C(=O)O)[C@@H](C)CC)[C@@H](C)O)[C@@H](C)CC)C(C)C` [MNGFILGKFFDVAKKILDTIFQK], for which the MIC in experiment [22] came to 1.22 µM (≈ 3.26 µg/mL).

With `CC[C@H](C)[C@H](NC(=O)[C@H](CCCN=C(N)N)NC(=O)[C@@H](N)CCCN=C(N)N)C(=O)N[C@@H](CCCN=C(N)N)C(=O)N[C@@H](CCCCN)C(=O)N[C@@H](CCCN=C(N)N)C(=O)N1CCC[C@H]1C(=O)N1CCC[C@H]1C(=O)N[C@@H](CCCN=C(N)N)C(=O)N[C@@H](CC(C)C)C(=O)N1CCC[C@H]1C(=O)N[C@@H](CCCN=C(N)N)C(=O)N1CCC[C@H]1C(=O)N[C@@H](CCCN=C(N)N)C(=O)N1CCC[C@H]1C(=O)N[C@@H](CCCCN)C(=O)O` [RRIRKRPPRLPRPRPK], the minimal inhibitory concentration (MIC) stood at 0.12 µM (≈ 0.25 µg/mL) in experiment [23]; 0.12 µM (≈ 0.25 µg/mL) in [24]; 0.12 µM (≈ 0.25 µg/mL) in experiment [25]; 0.12 µM (≈ 0.25 µg/mL) in experiment [26]; 0.078 µM (≈ 0.162 µg/mL) in experiment [27]; 0.06 µM (≈ 0.125 µg/mL) in experiment [28]. Further, the minimum inhibitory concentration (MIC) stood at 0.06 µM (≈ 0.125 µg/mL) in [29], 0.157 µM (≈ 0.326 µg/mL) in experiment [30] and 0.06 µM (≈ 0.125 µg/mL) in [31].
